Patent US20240025893A1, “PYRIMIDINE-AND NITROGEN-CONTAINING BICYCLIC COMPOUND” (Asahi Kasei Pharma Corporation, priority 2020, published 2024)

What was measured:
human IRAK-4 = human IRAK-4 (Homo sapiens (Human), UniProt Q9NWZ3); experiment: Measurement of human IRAK-4 inhibitory activity (TR-FRET, peptide substrate phosphorylation, 10 μM ATP); format: biochemical; settings: 1 nM IRAK-4, 10 μM ATP, 23° C., 30 minutes; average values
How it was run: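 With 1 nM IRAK-4, 0.5 μM biotinylated peptide and 10 μM ATP, compound incubated 30 min at 23 °C in 50 mM HEPES pH 7.2 with Mg2+/Mn2+. Stopped with EDTA plus europium-cryptate anti-phosphopeptide antibody and streptavidin-XL665, 60 min at 23 °C. Activity taken as the 665/620 nm TR-FRET ratio.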

[1] = test system: LPS-stimulated TNFα production in THP-1 cells; experiment: LPS-stimulated TNFα production inhibition test using human acute monocytic leukemia cell strain THP-1; format: cell-based; settings: Homo sapiens, THP-1, 4 h, LPS 2.5 ng/mL, average values
How it was run: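 THP-1 cells were preincubated with compound for 1 h at 37 °C, then stimulated with LPS (2.5 ng/mL final) for 4 h. Supernatant TNFα was quantified by HTRF (620/665 nm ratio) against a calibration curve. IC50 came from a 4-parameter logistic fit, with no-LPS set as 100% and no-compound as 0% suppression.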

human IRAK-4, sequence (Q9NWZ3 whole entry): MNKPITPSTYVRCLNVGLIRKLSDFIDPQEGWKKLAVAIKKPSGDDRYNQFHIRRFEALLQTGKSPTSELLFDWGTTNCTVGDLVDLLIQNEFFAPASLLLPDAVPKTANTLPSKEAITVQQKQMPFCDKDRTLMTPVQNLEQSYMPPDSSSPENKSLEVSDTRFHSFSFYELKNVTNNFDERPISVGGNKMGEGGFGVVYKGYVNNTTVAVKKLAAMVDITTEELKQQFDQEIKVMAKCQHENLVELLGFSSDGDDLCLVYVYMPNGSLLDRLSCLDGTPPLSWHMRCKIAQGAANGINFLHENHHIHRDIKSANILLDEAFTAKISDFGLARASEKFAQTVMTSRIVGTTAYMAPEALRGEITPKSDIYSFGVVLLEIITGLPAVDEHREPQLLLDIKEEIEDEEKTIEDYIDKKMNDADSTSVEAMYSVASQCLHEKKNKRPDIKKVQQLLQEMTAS

| SMILES | IC50 (human IRAK-4) | IC50 [1] |
| --- | --- | --- |
| COc1c(-c2cnc(CO[C@H]3CCC[C@@H]3O)nc2)ccc2nc(NC(=O)[C@H]3C[C@@H](N4CCN(C(=O)c5ccnc(C)c5)C[C@@H]4C)C3)sc12 [c-03-02, (1R,3s)-N-(6-(2-((((1S,2S)-2-Hydroxycyclopentyl)oxy)methyl)pyrimidin-5-yl)-7-methoxybenzo[d]thiazol-2-yl)-3-((S)-2-methyl-4-(2-methylisonicotinoyl)piperazin-1-yl)cyclobutane-1-carboxamide] | 2.36 nM | 13 nM |
| COCC(=O)N1CCN([C@H]2C[C@@H](C(=O)Nc3nc4ccc(-c5cnc(CO[C@H]6CCC[C@@H]6O)nc5)c(OC)c4s3)C2)[C@@H](C)C1 [c-03-03] | 2.54 nM | 230 nM |
| COCCOCC(=O)N1CCN([C@H]2C[C@@H](C(=O)Nc3nc4ccc(-c5cnc(CO[C@H]6CCC[C@@H]6O)nc5)c(OC)c4s3)C2)[C@@H](C)C1 [c-03-04] | 2.69 nM | 320 nM |
| COc1c(-c2cnc(CO[C@H]3CC(F)(F)C[C@@H]3O)nc2)ccc2nc(NC(=O)C3CC3)sc12 [c-04-01, N-(6-(2-((((1S,2S)-4,4-Difluoro-2-hydroxycyclopentyl)oxy)methyl)pyrimidin-5-yl)-7-methoxybenzo[d]thiazol-2-yl)cyclopropanecarboxamide] | 4.04 nM | 115 nM |
| CCOc1c(-c2cnc(CO[C@H]3CCC[C@@H]3O)nc2)ccc2nc(NC(=O)C3CC3)sc12 [c-04-02] | 6.33 nM | 207 nM |
| COCCOc1c(-c2cnc(CO[C@H]3CCC[C@@H]3O)nc2)ccc2nc(NC(=O)C3CC3)sc12 [c-04-03] | 12.4 nM | 184 nM |
| CN1CC(F)(COc2c(-c3cnc(CO[C@H]4CCC[C@@H]4O)nc3)ccc3nc(NC(=O)C4CC4)sc23)C1 [c-05-01, N-(7-((3-Fluoro-1-methylazetidin-3-yl)methoxy)-6-(2-((((1S,2S)-2-hydroxycyclopentyl)oxy)methyl)pyrimidin-5-yl)benzo[d]thiazol-2-yl)cyclopropanecarboxamide] | 5.48 nM | 233 nM |
| O=C(Nc1nc2ccc(-c3cnc(CO[C@H]4CCC[C@@H]4O)nc3)c(OCCO)c2s1)C1CC1 [c-06-01, N-(6-(2-((((1S,2S)-2-Hydroxycyclopentyl)oxy)methyl)pyrimidin-5-yl)-7-(2-hydroxyethoxy)benzo[d]thiazol-2-yl)cyclopropanecarboxamide] | 5.45 nM | 358 nM |
| O=C(Nc1nc2ccc(-c3cnc(CO[C@H]4CCC[C@@H]4O)nc3)c(OCc3nccs3)c2s1)C1CC1 [c-06-02] | 10.7 nM | 317 nM |
| O=C(Nc1nc2ccc(-c3cnc(CO[C@H]4CCC[C@@H]4O)nc3)c(OC[C@H]3CCOC3)c2s1)C1CC1 [c-06-03] | 17.1 nM | 277 nM |
| Cc1c(-c2cnc(CO[C@H]3CCC[C@@H]3O)nc2)ccc2nc(NC(=O)C3CC3)sc12 [c-07-01] | 6.48 nM | 347 nM |
| C[C@@H]1C[C@H]1C(=O)Nc1nc2ccc(-c3cnc(CO[C@H]4CCC[C@@H]4O)nc3)cc2s1 [d-01-01, (1R,2R)—N-(6-(2-((((1S,2S)-2-Hydroxycyclopentyl)oxy)methyl)pyrimidin-5-yl)benzo[d]thiazol-2-yl)-2-methylcyclopropane-1-carboxamide] | 1.31 nM | 85 nM |
| C[C@]1(O)C[C@@H](C(=O)Nc2nc3ccc(-c4cnc(CO[C@H]5CCC[C@@H]5O)nc4)cc3s2)C1 [d-01-02] | 2.75 nM | 165 nM |
| CO[C@]1(C)C[C@H](C(=O)Nc2nc3ccc(-c4cnc(CO[C@H]5CCC[C@@H]5O)nc4)cc3s2)C1 [d-01-03] | 2.16 nM | 175 nM |
| CC(C)(C)OC(=O)N1CC2(CC(C(=O)Nc3nc4ccc(-c5cnc(CO[C@H]6CCC[C@@H]6O)nc5)cc4s3)C2)C1 [d-01-04] | 6.39 nM | 178 nM |
| O=C(Nc1nc2ccc(-c3cnc(CO[C@H]4CCC[C@@H]4O)nc3)cc2s1)C1CC2(CCOCC2)C1 [d-01-05] | 2.07 nM | 101 nM |
| O=C(Nc1nc2ccc(-c3cnc(CO[C@H]4CCC[C@@H]4O)nc3)cc2s1)C1CC2(C1)CC(F)(F)C2 [d-01-06] | 3.62 nM | 174 nM |
